Data from ChEMBL document CHEMBL1130985, “A novel super-potent neurokinin A receptor antagonist containing dehydroalanine” (Bioorg Med Chem Lett, 1998).
Numbered stars: 1 amine (or outer) side, 2 acyl side, 3 side chain; on linkers, the order of the positions; unused ones are H or OH. Bridge positions count the residues as written; N and C are the ends. Square brackets hold non-standard residues; d marks the D form. Peptide text beside a SMILES is read from it. X1 = O=C([C@@H](CN[*:1])CSCC1O[C@@H](O)C(O)[C@H](O)[C@H]1O)[*:2]; Dap = NC[C@H](N)C(=O)O; Dha = C=C(N)C(=O)O

Tests used:
[1] = target: T1, Substance-K receptor (Rattus norvegicus) (UniProt P16610); assay: Antagonistic activity against Tachykinin receptor 2 in rat vas deferens at 100 nM concentration; assay type: functional
T1 sequence (whole entry): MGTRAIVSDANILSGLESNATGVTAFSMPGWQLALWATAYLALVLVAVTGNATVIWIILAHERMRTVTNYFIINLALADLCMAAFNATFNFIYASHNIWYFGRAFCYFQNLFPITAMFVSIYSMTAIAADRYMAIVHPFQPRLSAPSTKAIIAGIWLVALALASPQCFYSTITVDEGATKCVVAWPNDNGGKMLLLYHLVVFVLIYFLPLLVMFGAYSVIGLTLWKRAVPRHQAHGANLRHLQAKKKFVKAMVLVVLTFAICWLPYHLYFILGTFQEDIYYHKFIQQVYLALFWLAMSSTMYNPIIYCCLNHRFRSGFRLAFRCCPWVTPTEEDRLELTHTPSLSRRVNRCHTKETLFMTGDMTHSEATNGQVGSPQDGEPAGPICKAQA

[2] = target: T1, Substance-K receptor (Rattus norvegicus); assay: Antagonistic activity against Tachykinin receptor 2 in rat vas deferens at 10 nM concentration; assay type: functional
[3] = target: T1, Substance-K receptor (Rattus norvegicus); assay: Antagonistic activity against Tachykinin receptor 2 in rat vas deferens at 30 nM concentration; assay type: functional
Substance-K receptor = target: T2, Substance-K receptor (Rattus norvegicus, UniProt P16610); assay: pA2 value against Tachykinin receptor 2 in rat vas deferens; assay type: tissue-based; conditions: for Kb: read-out: pA2 (converted)
T2 sequence (P16610 whole entry): T1 sequence (whole entry)

Emax [1]	Emax [2]	Emax [3]	Kb (Substance-K receptor)	pA2 (Substance-K receptor)	SMILES
94%	95%	96%	6.17 nM		CSCC[C@@H]1NC(=O)[C@H](CC(C)C)NC(=O)[C@@H]2CNC(=O)C[C@H](NC1=O)C(=O)N[C@@H](Cc1c[nH]c3ccccc13)C(=O)N[C@@H](Cc1ccccc1)C(=O)N2 (cyclo(DWF[Dap]LM); lactam 1-4)
				9.65	C=C1NC(=O)[C@H](CC(C)C)NC(=O)[C@@H]2CNC(=O)C[C@H](NC1=O)C(=O)N[C@@H](Cc1c[nH]c3ccccc13)C(=O)N[C@@H](Cc1ccccc1)C(=O)N2 (cyclo(DWF[Dap]L[Dha]); lactam 1-4)
92%	96%	99%	5.62 nM		CC(C)C[C@@H]1NC(=O)[C@@H]2CNC(=O)C[C@H](NC(=O)[C@H](CSCC3O[C@@H](O)C(O)[C@H](O)[C@H]3O)CNC1=O)C(=O)N[C@@H](Cc1c[nH]c3ccccc13)C(=O)N[C@@H](Cc1ccccc1)C(=O)N2 (some centres undefined) (cyclo(DWF[Dap]L[X1]); lactam 1-4)
